Experimental data as given in patent US4153709A, “N-Heterocyclic ureas as immune regulants” (Eli Lilly and Company, priority 1977, dated 1979).
Several values for one entry are separate records, joined by “and”; a condition that tells them apart may be missing. Identical values can stand only once. Like-named read-outs stand apart in the source and are kept apart here.

Legend:
[1] = system: antibody to sheep red blood cells; assay: Oral immunoregulating activity in marmosets (Table 17); format: in vivo
Experimental: The animals in the treated group received 10 daily 100 mg/kg doses of the drug by oral gavage. On the 4th treatment day, these animals and a similar group of controls were given intraperitoneal injections of 1×10^9 sheep red blood cells. On the 12th day following antigen injection, serum levels of antibody were determined.
*Notation: Day 0 = day of antigen injection, Day -1 = day previous, Day +

[2] = system: Salmonella typhimurium G46 missense histidine-auxotroph; assay: Host mediated assay (in vivo mutagenicity), G46 indicator (Table 22); set-up: species or system Salmonella typhimurium in Cox white Swiss male mice; settings: s.c.
Experimental: Cox white Swiss male mice 25-30 grams were used in all in vivo tests.
A. Drug Administration: Appropriate solvents were used where applicable with a solvent control run within each test. […] The organisms were grown to stationary phase, then diluted with normal saline to give an inoculum near 1×10^8 organisms per milliliter. The abdominal area of the drug-treated mouse was swabbed with alcohol and two milliliters of bacterial culture were injected into the abdominal cavity of the mouse. The mice were returned to their cages for 3-4 hours.
C. Autopsy and Recovery: The mice were sacrificed individually by cervical dislocation prior to each autopsy. The abdominal areas were soaked with ethanol. The peritoneum was bared and 2.5 ml. of sterile normal saline was injected into the peritoneal cavity using a sterile (3-ml. plastic syringe with a 20-gauge needle. After insertion, the needle is turned bevel up and the saline was expelled into the cavity; while the needle remains through the peritoneum, keeping the point of the needle in sight pressed against the peritoneal wall, the abdomen of the mouse was massaged to mix contents. The saline wash was removed from the abdominal cavity back into the syringe. The needle was removed and the contents expelled into an appropriately marked tube and iced 4° C.
D. Dilution and Plating: One-ml. samples were plated at 10° dilution on all mice to determine revertants (histidine+).
A one-milliliter sample from the untreated dilutions from control animals is plated 10^-6, 10^-7, and 10^-8 dilutions with excess histidine to determine mutable population (histidine-).

[3] = system: antibody response to sheep blood cells (hemaglutination titer); assay: Immune regulating test: suppression of hemaglutination titer by 4-fold factor in mice (i.p. drug, i.p. sheep blood cells), Tables 1-15; format: in vivo, Swiss mice; settings: Mus musculus, ip, 192 h, × 3, intraperitoneal, minimum dose to suppress the hemaglutination titer by a 4-fold factor, 8 days after antigen, read-out: Immuno-Suppressant ED4-Fold
Procedure, shortened: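 Groups of five 20-gram Swiss mice received compound i.p. and sheep blood cell antigen i.p.; sera pooled per group eight days after antigen. Hemagglutination titers of pooled sera compared with controls; value is the minimum dose suppressing titer 4-fold versus control.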

[4] = system: graft versus host reaction; assay: Graft versus host (GVH) reaction, spleen weight (Tables 20, 21); format: in vivo, mice (C57BL donors, F1 hybrid C57BL×C3H recipients)
Experimental: In this determination, […] (C57BL) mouse spleen cells are injected into mice of an F1 hybrid strain (C57BL×C3H). […] The injected cells, however, mount a reaction to the recipient's tissues due to the foreign C3H-derived antigens. As a consequence, the recipient's spleen becomes enlarged. Immunosuppressive therapy prevents or reduces this enlargement. Thus, spleen weights provide a measure of the GVH reaction and its reduction under immunosuppression.
Treated and GVH control animals receive an intraperitoneal injection of 1.2×10^9 splenic lymphocytes from the C57 donors. Spleens are weighed ten days later. Spleen weights derived from groups of recipient mice receiving genetically homologous, i.e., syngeneic cells (C57BL×C3H) provide normal control values for calculating percent inhibition in drug-treated groups. For example, mice given 13 daily topical doses of 1-(4,5,6,7-tetra-hydro-2-benzothiazolyl)-3-phenyl urea show a 62% reduction in GVH reaction relative to controls, as set forth in Table 20.
Using this procedure, three compounds from the above useful in the processes of this invention have been compared with several reference immunosuppressive drugs. Treatment levels defining the 50 percent inhibitory dose have been determined.

[5] = system: Salmonella typhimurium G46 missense histidine-auxotroph; format: cell-based; settings: 750 mcg/ml
Experimental: Compounds found active in the qualitative test were further tested. The culture to be tested was grown to stationary phase in tryptone yeast broth and then diluted to a viable count of about 9×10^7 organisms per milliliter.
Eleven log4 dilutions of the test compound were made covering a range that would allow survival of nonlethal mutants. The dilutions were made in Spizizen's minimal media with minute amounts of histidine and biotin (20 nM) each in […]. tubes. Each tube contained 3 ml. after dilution. Replicate 1 ml. aliquots of test organism were added to each tube including six "0" drug tubes. Final drug concentrations were calculated from 4-ml. volumes (3 ml. drug dilution +1 ml. test organism). Two of the "0" drug tubes were immediately plated at 10° dilution in minimal medium and 10^-5, 10^-6, 10^-7 dilutions in medium containing excess histidine (40 mcg/ml.) Spontaneous revertants (histidine+) were detected in the 10° dilution. Mutable population (histidine-) were detected in the 10^-5, 10^-6, and 10^-7 dilutions. All remaining dilutions were incubated in a Dubonoff shaker at 37° C. for 4 hr., then iced at 4° C. […] A 1-ml. aliquot from each "0" control was also plated at 10^-6, 10^-7, and 10^-8 dilutions in media with excess histidine to detect growth of mutable population (histidine-); normally there are 3-4 generations of the mutable population. All minimal media plates were counted. A dose response increase in revertants above spontaneous background indicated mutagenic potential of a test compound. […] Lethality has occurred to both populations, histidine+ and histidine-, at the same compound levels in all drugs tested to date.
The results are recorded as mutants test/mutants control.

[6] = system: fatal glomerulonephritis in NZB/w mice; format: in vivo; settings: for MST (mean survival time) / Percent Survivors: 300th day
Description: NZB/w mice provide a close model of the human autoimmune disease, lupus erythematosis. These hybrid mice develop antinuclear antoantibody in the early months of life, which antibody becomes deposited in the glomeruli in the form of a complex with the inciting antigen. A fatal glomerulonephritis ensues. A group of these mice had been placed under continuous therapy (via the feed) with 1-(6-methoxy-2-benzothiazolyl)-3-) phenyl urea for 300 days. The mice were divided into three subgroups, 10 mice receiving 75 mg/kg/day of drug, 10 mice receiving 25 mg/kg/day, and 11 mice serving as untreated controls.
In view of the close parallel of this murine model to the human counterpart, this would appear of significance in terms of long-term human therapy.

[7] = 10 daily 100 mg/kg doses oral, individual marmoset, 100 mg/kg

SMILES: COc1ccc2nc(NC(=O)Nc3ccccc3)sc2c1 [Table 11: phenyl, 6-CH3 O, S, 1-(6-methoxy-2-benzothiazolyl)-3-phenyl urea]
- detectable antibody response ([1]; 10 daily 100 mg/kg doses by oral gavage, 12th day following antigen, control four out of five): none of the treated marmosets showed a detectable response
- Weight Change (%) Day +6 to +19 [1, 7]: -6.8% and +9.1% and +6.0% and +5.7%
- Weight Change (%) Day -7 to +6 [1, 7]: -18.8% and -6.2% and -21.4% and -5.7% and -8.2%
- Antibody Titer (reciprocal) Day +12 ([1]; 10 daily 100 mg/kg doses oral, individual marmoset, Day 0 = antigen injection): < 5
- animals gaining weight by the 19th day ([1]; 10 daily 100 mg/kg doses oral, treated group): four of the five animals were gaining weight
- IN VIVO mutants test/mutants control ([2]; 3 mg/kg): .95
- IN VIVO mutants test/mutants control ([2]; 30 mg/kg): .95
- IN VIVO mutants test/mutants control ([2]; 300 mg/kg, MT/MC of 3 would indicate mutagenic potential): 1.2
- IN VIVO mutants test/mutants control ([2]; .3 mg/kg): 1.25
- minimal effective dose [3]: < 25 mg/kg
- Percent GVH Inhibition ([4]; 1 mg/kg × 13, s.c.): 22%
- Percent GVH Inhibition ([4]; 2 mg/kg × 13, s.c.): 58%
- IN VITRO QUANTITATIVE MT/MC [5]: .90
- MST (mean survival time) ([6]; 25 mg/kg/day in feed): 214 days
- Percent Survivors ([6]; 25 mg/kg/day in feed): 60%
- Day of Death ([6]; 75 mg/kg/day in feed, 10 mice, 300 days): 180,281
- MST (mean survival time) ([6]; 75 mg/kg/day in feed): 286 days
- Percent Survivors ([6]; 75 mg/kg/day in feed): 80%
- effect on survival parameters ([6]; 300 days of therapy, 25 and 75 mg/kg/day): A dose-related effect of the drug on survival parameters
- effect on life span ([6]; female NZBxW mice): able to prolong the life of female NZBxW mice
